Patent US20260078099A1, “COMPOUND, PREPARATION METHOD THEREOF, AND LIPID NANOPARTICLE AND PHARMACEUTICAL COMPOSITION” (priority 2023, published 2026)

System: mice
Assay: Bioluminescent study, intramuscular injection of F-luc mRNA LNPs
Format: in vivo
Details: F-luc luminescence flux normalized to MC3; 0.25 mg/kg intramuscular, mice n=3, 6-hour time point
Description: The efficacy of nanoparticle compositions was evaluated using bioluminescent studies. A dose of 0.25 mg/kg (mpk) of the formulation was administered to mice (n=3) via intramuscular injection, and bioluminescence was measured at a 6-hour time point. The test lipid nanoparticles from the MC3 formulation were evaluated, and in some cases, controls (e.g., PBS controls) were assessed for comparison.
The characteristics of the test lipid nanoparticles measured from the test groups, including F-luc luminescence intensity, are listed in the table below.

SMILES: CCCCCCCCC(C(=O)NCCCCCCCCCC(=O)OC(CCCC)CCCCCC)N(CCCN1CCCC1)C(=O)CCCCCCCCCC(=O)OC(CCCC)CCCCCC (centres unmarked) [Compound A3]
- Relative Total flux: C (C: ≥0.1 and <1)

SMILES: CCCCC/C=C\C/C=C\CCCCCCCC(=O)N(CCCN1CCCC1)C(CCCCCCCCCCC)C(=O)NCCCCCCCCCCCCCC (centres unmarked) [Compound A22]
- Relative Total flux: C (C: ≥0.1 and <1)

SMILES: CCCCC/C=C\C/C=C\CCCCCCCC(=O)N(CCCCN1CCCC1)C(CCCCCCCCCCC)C(=O)NCCCCCCCCCCCCCC (centres unmarked) [Compound A24]
- Relative Total flux: C (C: ≥0.1 and <1)

SMILES: CCCCCCCCCCCCCCNC(=O)C(CCCCCCCCCCC)N(CCCCN1CCCC1)C(=O)CCCCCCC(=O)OC(CCCCCCCC)CCCCCCCC (centres unmarked) [Compound A25]
- Relative Total flux: D (D: <0.1.)

SMILES: CCCCCCCCNC(=O)C(CCCCCCCC)N(CCCCN1CCCC1)C(=O)CCCCCCC(=O)OC(CCCCCCCC)CCCCCCCC (centres unmarked) [Compound A37]
- Relative Total flux: B (B: ≥1 and <2)

SMILES: CCCCCCCCNC(=O)C(CCCCCCCC)N(CCN(CC)CC)C(=O)CCCCCCC(=O)OC(CCCCCCCC)CCCCCCCC (centres unmarked) [Compound A38]
- Relative Total flux: A (A: ≥2)

SMILES: CCCCCCCCNC(=O)C(CCCCCCCC)N(CC1CCCN(C)C1)C(=O)CCCCCCC(=O)OC(CCCCCCCC)CCCCCCCC (centres unmarked) [Compound A39]
- Relative Total flux: A (A: ≥2)

SMILES: CCCCCCCCC(CCCCCC)COC(=O)CCCCCNC(=O)C(CCCCC)N(CCCN(C)C)C(=O)CCCCCC(=O)OCC(CCCCCCCC)CCCCCCCC (centres unmarked) [Compound A43]
- Relative Total flux: A (A: ≥2)

SMILES: CCCCCCCCC(CCCCCC)COC(=O)CCCCCNC(=O)C(CCCCC)N(CCCCN(C)C)C(=O)CCCCCC(=O)OCC(CCCCCC)CCCCCCCC (centres unmarked) [Compound A44]
- Relative Total flux: B (B: ≥1 and <2)

SMILES: CCCCCCCCC(CCCCCCCC)OC(=O)CCCCCCC(=O)N(CCCN(C)C)C(CCCCCCCC)C(=O)NCCCCCC(=O)OCCC12CC3CC(CC(C3)C1)C2 (centres unmarked) [Compound A47]
- Relative Total flux: A (A: ≥2)

SMILES: CCCCCCCCC(C(=O)NCCCCCCCCCC(=O)OCCCCCC)N(CCCN(CO)CO)C(=O)CCCCCCCCCC(=O)OC(CCCCCC)CCCCCC (centres unmarked) [Compound B1]
- Relative Total flux: A (A: ≥2)

SMILES: CCCCCCCC(C(=O)NCCCCCCCCCC(=O)OC(CCCCCC)CCCCCC)N(CCN(C)CCO)C(=O)CCCCCCCCCC(=O)OC(CCCCCC)CCCCCC (centres unmarked) [Compound B9]
- Relative Total flux: A (A: ≥2)

SMILES: CCCCCCCCNC(=O)C(CCCCCCCC)N(CCCN(C)CCCO)C(=O)CCCCCCC(=O)OC(CCCCCCCC)CCCCCCCC (centres unmarked) [Compound B27]
- Relative Total flux: B (B: ≥1 and <2)

SMILES: CCCCCCCCNC(=O)C(CCCCCCCC)N(CCCN(CC)CCO)C(=O)CCCCCCC(=O)OC(CCCCCCCC)CCCCCCCC (centres unmarked) [Compound B28]
- Relative Total flux: A (A: ≥2)

SMILES: CCCCC/C=C\C/C=C\CCCCCCCCNC(=O)C(CCCCCCCC)N(CCCCCCCC/C=C\C/C=C\CCCCC)C(=O)CCCN(C)C (centres unmarked) [Compound C2]
- Relative Total flux: B (B: ≥1 and <2)

SMILES: CCCCC/C=C\C/C=C\CCCCCCCCNC(=O)C(CCCCCCCC)N(CCCCCCCC/C=C\C/C=C\CCCCC)C(=O)CCCN1CCCC1 (centres unmarked) [Compound C4]
- Relative Total flux: B (B: ≥1 and <2)

SMILES: CCCCC/C=C\C/C=C\CCCCCCCCNC(=O)C(CCCCCCCC)N(CCCCCCCC/C=C\C/C=C\CCCCC)C(=O)CCCN(C)CCO (centres unmarked) [Compound C6]
- Relative Total flux: D (D: <0.1.)

SMILES: CCCCC/C=C\C/C=C\CCCCCCCCNC(=O)C(CCCCCCCC)N(CCCCCCCC/C=C\C/C=C\CCCCC)C(=O)CCCN(CCO)CCO (centres unmarked) [Compound C7]
- Relative Total flux: D (D: <0.1.)

SMILES: CCCCCCCCC(C(=O)NCCCCCCCCCC(=O)OC(CCCCCC)CCCCCC)N(CCCCN1CCN(CCCN(C(=O)CCCCCCCCCC(=O)OC(CCCCCC)CCCCCC)C(CCCCCCCC)C(=O)NCCCCCCCCCC(=O)OC(CCCCCC)CCCCCC)CC1)C(=O)CCCCCCCCCOC(=O)C(CCCCCC)CCCCCC (centres unmarked) [Compound D3]
- Relative Total flux: C (C: ≥0.1 and <1)

SMILES: CCCCCCCCC(C(=O)NCCCCCCCCCC(=O)OC(CCCCCC)CCCCCC)N(CCN(C)CCN(C(=O)CCCCCCCCCC(=O)OC(CCCCCC)CCCCCC)C(CCCCCCCC)C(=O)NCCCCCCCCCC(=O)OC(CCCCCC)CCCCCC)C(=O)CCCCCCCCCC(=O)OC(CCCCCC)CCCCCC (centres unmarked) [Compound D6]
- Relative Total flux: A (A: ≥2)
